Experimental data from patent US8889684B2, “Azaindolylphenyl sulfonamides as serine/threonine kinase inhibitors” (Boehringer Ingelheim International GmbH, priority 2011, dated 2014).

Assays:
B-Raf (V600E)-kinase = B-Raf (V600E)-kinase (Homo sapiens (Human), UniProt P15056, V600E); test: Kinase test B-Raf (V600E); type: biochemical; settings: 250 μM ATP, biotinylated MEK1 substrate
Protocol: Kinase test B-Raf (V600E)
In a dilution series 10 μL/well of test substance solution are placed in a multiwell plate. The dilution series is selected so that generally a range of concentrations of 2 μM to 0.119 nM or 0.017 nM is covered. If necessary the initial concentration of 2 μM is changed to 50 μM, 10 μM, 0.4 μM or 0.2857 μM and further dilution is carried out accordingly. The final concentration of DMSO is 5%. 10 μL/well of the B-Raf (V600E)-kinase solution are pipetted in (containing 0.5 ng B-Raf (V600E)-kinase, e.g. from Upstate) in 20 mM Tris-HCl pH 7.5, 0.1 mM EDTA, 0.1 mM EGTA, 0.286 mM sodium orthovanadate, 10% glycerol, 1 mg/mL bovine serum albumin, 1 mM dithiothreitol) and the mixture is incubated for 1 h at RT with shaking. The kinase reaction is started by the addition of 20 μL/well ATP solution [final concentration: 250 μM ATP, 30 mM Tris-HCl pH 7.5, 0.02% Brij, 0.2 mM sodium orthovanadate, 10 mM magnesium acetate, 0.1 mM EGTA, phosphatase cocktail (Sigma, #P2850, dilution recommended by the manufacturer)] and 10 μL/well MEK1 solution [containing 50 ng biotinylated MEK1 (prepared from purified MEK1 according to standard procedure, e.g. with EZ-Link Sulpho-NHS-LC-Biotin reagent, Pierce, #21335)] and carried out for 60 min at RT with constant shaking. The reaction is stopped by the addition of 12 μL/well of a 100 mM EDTA solution and incubation is continued for a further 5 min. 55 μL/well of the reaction solution are transferred into a streptavidin-coated plate (e.g. Streptawell HighBond, Roche, #11989685001) and gently shaken for 1 h at RT in order to bind biotinylated MEK1 to the plate. After elimination of the liquid the plate is washed five times with 200 μL/well of 1×PBS and 100 μL/well solution of primary antibody plus europium-labelled secondary antibody [Anti Phospho-MEK (Ser217/221), Cell Signaling, #9121 and Eu—N1 labelled goat-anti-rabbit antibody, Perkin Elmer, #AD0105] is added, the primary antibody is diluted 1:2000 and the secondary antibody is diluted to 0.4-0.5 μg/mL in Delfia Assay Buffer (Perkin Elmer, #1244-111). After 1 h shaking at RT the solution is poured away and washed five times with 200 μL/well Delfia Wash Buffer (Perkin Elmer, #4010-0010/#1244-114). After the addition of 200 μL/well Enhancement Solution (Perkin Elmer, #4001-0010/#1244-105) the mixture is shaken for 10 min at RT and then measured in a Wallac Victor using the program “Delfia Time Resolved Fluorescence (Europium)”. IC50 values are obtained from these dosage-activity curves using a software program (GraphPadPrizm).

SK-MEL-28 cells = test: Inhibition of the proliferation of cultivated human melanoma cells (SK-MEL-28, B-RAF V600E mutated); type: cell-based; settings: 72 h incubation, AlamarBlue
Protocol: Measurement of the Inhibition of the Proliferation of Cultivated Human Melanoma cells (SK-MEL-28, B-RAF^V600E Mutated)
SK-MEL-28 cells are placed in 96-well flat bottomed dishes in a density of 2500 cells per well in supplemented MEM medium (see above) and incubated overnight in an incubator (at 37° C. and 5% CO2). […] After an incubation period of a further 72 h 20 μL AlamarBlue reagent (Serotec Ltd., #BUF012B) are added to each well and the cells are incubated for a further 3-6 h. The colour change of the AlamarBlue reagent is determined in a fluorescence spectrophotometer (e.g. Gemini, Molecular Devices). EC50 values are calculated using a software program (GraphPadPrizm).

B-Raf (V600E)-kinase, sequence (P15056 whole entry V600E): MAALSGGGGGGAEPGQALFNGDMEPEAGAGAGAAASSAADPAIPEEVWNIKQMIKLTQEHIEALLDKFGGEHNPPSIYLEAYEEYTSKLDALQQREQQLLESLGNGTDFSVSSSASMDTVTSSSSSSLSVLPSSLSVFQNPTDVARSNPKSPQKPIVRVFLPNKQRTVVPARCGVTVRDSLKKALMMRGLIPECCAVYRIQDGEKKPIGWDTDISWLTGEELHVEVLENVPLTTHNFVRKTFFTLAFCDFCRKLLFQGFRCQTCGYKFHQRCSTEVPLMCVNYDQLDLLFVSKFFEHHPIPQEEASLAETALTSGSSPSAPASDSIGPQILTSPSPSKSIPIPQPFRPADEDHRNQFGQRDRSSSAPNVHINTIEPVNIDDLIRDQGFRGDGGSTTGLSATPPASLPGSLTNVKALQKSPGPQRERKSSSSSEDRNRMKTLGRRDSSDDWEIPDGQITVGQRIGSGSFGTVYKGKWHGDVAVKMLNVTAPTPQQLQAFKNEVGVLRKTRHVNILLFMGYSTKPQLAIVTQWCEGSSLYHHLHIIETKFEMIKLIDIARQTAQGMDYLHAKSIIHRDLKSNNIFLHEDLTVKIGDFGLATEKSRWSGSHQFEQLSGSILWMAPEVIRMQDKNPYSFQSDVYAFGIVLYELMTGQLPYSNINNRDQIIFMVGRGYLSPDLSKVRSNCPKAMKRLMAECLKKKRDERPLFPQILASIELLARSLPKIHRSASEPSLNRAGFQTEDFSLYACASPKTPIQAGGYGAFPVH

Row | Compound | IC50 (B-Raf (V600E)-kinase) [nM] | EC50 (SK-MEL-28 cells) [nM]
1 | CCCS(=O)(=O)Nc1ccc(F)c(-n2cc(-c3cncc(OC)c3)c3nc(N4CCN(C)CC4)ccc32)c1F [I-3] | 297 | 114
2 | CCCS(=O)(=O)Nc1ccc(F)c(-n2cc(-c3cncc(OC)c3)c3nc(N4CCN(C)CC4)ncc32)c1F [I-6] | 1610 | 121
3 | CCCS(=O)(=O)Nc1ccc(F)c(-n2cc(-c3cncc(OC)c3)c3nc(N(C)C4CCN(C)CC4)ncc32)c1F [I-7] | 7 | 40
4 | CCCS(=O)(=O)Nc1ccc(F)c(-n2cc(-c3cncnc3)c3nc(N(C)C4CCN(C)CC4)ncc32)c1F [I-8] | 4 | 6
5 | CCCS(=O)(=O)Nc1ccc(F)c(-n2cc(-c3cncnc3)c3nc(N(C)C4CCN(CC)CC4)ncc32)c1F [I-9] | 16 | 11
6 | CCCS(=O)(=O)Nc1ccc(F)c(-n2cc(-c3cncnc3)c3nc(N(C)C4CCN(C5CC5)CC4)ncc32)c1F [I-10] | 29 | 
7 | CCCS(=O)(=O)Nc1ccc(F)c(-n2cc(-c3cncnc3)c3nc(N(C)C4CCNCC4)ncc32)c1F [I-12] | 41 | 60
8 | CCCS(=O)(=O)Nc1ccc(F)c(-n2cc(-c3cncnc3)c3nc(N(C)C4CCN(C(=O)OC(C)(C)C)CC4)ccc32)c1F [I-13] |  | 86
9 | CCCS(=O)(=O)Nc1ccc(F)c(-n2cc(-c3cncnc3)c3nc(N(C)C4CCNCC4)ccc32)c1F [I-14] |  | 6
10 | O=S(=O)(CC1CCCO1)Nc1ccc(F)c(-n2cc(-c3cncnc3)c3nc(N4CCNCC4)ccc32)c1F (stereo not drawn) [I-15] |  | 181
11 | CN(c1ncc2c(n1)c(-c1cncnc1)cn2-c1c(F)ccc(NS(=O)(=O)CC2CC2)c1F)C1CCNCC1 [I-19] |  | 110
12 | CN(c1ccc2c(n1)c(-c1cncnc1)cn2-c1c(F)ccc(NS(=O)(=O)C2CC2)c1F)C1CCN(C(=O)OC(C)(C)C)CC1 [I-22] |  | 112
13 | CCCS(=O)(=O)Nc1ccc(F)c(-n2cc(-c3cncnc3)c3nc(N4CCN(CC)CC4)ccc32)c1F [I-23] |  | 40
14 | CCCS(=O)(=O)Nc1ccc(F)c(-n2cc(-c3cncnc3)c3nc(N4CCN(C)CC4)ncc32)c1F [I-24] |  | 68
15 | CCCS(=O)(=O)Nc1ccc(F)c(-n2cc(-c3cncnc3)c3nc(N(C)C4CCN(C)CC4)ccc32)c1F [I-30] |  | 2
16 | CCCS(=O)(=O)Nc1ccc(F)c(-n2cc(-c3cncnc3)c3nc(N4CCN(CC5CC5)CC4)ccc32)c1F [I-31] |  | 31
17 | CN1CCC(N(C)c2ccc3c(n2)c(-c2cncnc2)cn3-c2c(F)ccc(NS(=O)(=O)C3CC3)c2F)CC1 [I-32] |  | 2
18 | CCCS(=O)(=O)Nc1ccc(F)c(-n2cc(-c3cncnc3)c3nc(N4CCNCC4)ccc32)c1F [I-33] |  | 14
19 | CCCN1CCC(N(C)c2ccc3c(n2)c(-c2cncnc2)cn3-c2c(F)ccc(NS(=O)(=O)CCC)c2F)CC1 [I-34] |  | 2
20 | CCCS(=O)(=O)Nc1ccc(F)c(-n2cc(-c3cncnc3)c3nc(N(C)C4CCN(CCOC)CC4)c(F)cc32)c1F [I-35] |  | 6
21 | CCCS(=O)(=O)Nc1ccc(F)c(-n2cc(-c3cncnc3)c3nc(N(C)C4CCN(CC(C)(C)O)CC4)c(F)cc32)c1F [I-36] |  | 7
22 | CCCS(=O)(=O)Nc1ccc(F)c(-n2cc(-c3cncnc3)c3nc(N(C)C4CCN(CC5CC5)CC4)ccc32)c1F [I-37] |  | 2
23 | CN(c1ncc2c(n1)c(-c1cncnc1)cn2-c1c(F)ccc(NS(=O)(=O)c2ccoc2)c1F)C1CCN(CC2CC2)CC1 [I-39] |  | 0.47
24 | CCCS(=O)(=O)Nc1ccc(F)c(-n2cc(-c3cncnc3)c3nc(N(C)C4CCN(CC)CC4)c(F)cc32)c1F [I-40] |  | 3
25 | [2H]C([2H])([2H])N(c1ccc2c(n1)c(-c1cncnc1)cn2-c1c(F)ccc(NS(=O)(=O)CCC)c1F)C1CCN(CC)CC1 [I-41] |  | 1
26 | CCCS(=O)(=O)Nc1ccc(F)c(-n2cc(-c3cncnc3)c3nc(N(C)C4CCN(CC)CC4)ccc32)c1F [I-42] |  | 0.84
27 | [2H]C([2H])([2H])N(c1ccc2c(n1)c(-c1cncnc1)cn2-c1c(F)ccc(NS(=O)(=O)CCC)c1F)C1CCN(C([2H])([2H])C([2H])([2H])[2H])CC1 [I-44] |  | 1
28 | [2H]C([2H])([2H])C([2H])([2H])N1CCC(N(C)c2ccc3c(n2)c(-c2cncnc2)cn3-c2c(F)ccc(NS(=O)(=O)CCC)c2F)CC1 [I-46] |  | 3
29 | CCCS(=O)(=O)Nc1ccc(F)c(-n2cc(-c3cncnc3)c3nc(N(C)C4CCN(CC)CC4)ccc32)c1Cl [I-47] |  | 2

The remaining compounds from weak to strong by EC50 (SK-MEL-28 cells), led by results:

Row | IC50 (B-Raf (V600E)-kinase) [nM] | EC50 (SK-MEL-28 cells) [nM] | Compound
30 |  | 491 | CCN1CCN(c2ccc3c(n2)c(-c2cncnc2)cn3-c2c(F)ccc(NS(=O)(=O)CC3CCCO3)c2F)CC1 (stereo not drawn) [I-16]
31 |  | 386 | CN1CCN(c2ccc3c(n2)c(-c2cncnc2)cn3-c2c(F)ccc(NS(=O)(=O)CC3CCCO3)c2F)CC1 (stereo not drawn) [I-17]
32 |  | 90 | CCN1CCN(c2ccc3c(n2)c(-c2cncnc2)cn3-c2c(F)ccc(NS(=O)(=O)CC3CC3)c2F)CC1 [I-18]
33 |  | 89 | CCCS(=O)(=O)Nc1ccc(F)c(-n2cc(-c3cncnc3)c3nc(N4CCN(CC)CC4)ncc32)c1F [I-21]
34 |  | 73 | CCCS(=O)(=O)Nc1ccc(F)c(-n2cc(-c3cncnc3)c3nc(N4CCNCC4)ncc32)c1F [I-26]
35 |  | 72 | CN1CCN(c2ccc3c(n2)c(-c2cncnc2)cn3-c2c(F)ccc(NS(=O)(=O)CC3CC3)c2F)CC1 [I-20]
36 | 125 | 63 | CCCS(=O)(=O)Nc1ccc(F)c(-n2cc(-c3cncc(OC)c3)c3nc(N4CCN(CCOC)CC4)ccc32)c1F [I-4]
37 |  | 54 | CCCS(=O)(=O)Nc1ccc(F)c(-n2cc(-c3cncnc3)c3nc(N4CCN(CC5CC5)CC4)ncc32)c1F [I-27]
38 | 16 | 41 | CCCS(=O)(=O)Nc1ccc(F)c(-n2cc(-c3cncc(OC)c3)c3nc(N(C)C4CCN(C)CC4)cnc32)c1F [I-5]
39 |  | 41 | CCCS(=O)(=O)Nc1ccc(F)c(-n2cc(-c3cncnc3)c3nc(N4CCN(C5CC5)CC4)ccc32)c1F [I-29]
40 |  | 27 | O=S(=O)(CC1CC1)Nc1ccc(F)c(-n2cc(-c3cncnc3)c3nc(N4CCNCC4)ccc32)c1F [I-25]
41 | 42 | 21 | CCCS(=O)(=O)Nc1ccc(F)c(-n2cc(-c3cncnc3)c3nc(N(C)C4CCN(CCOC)CC4)ncc32)c1F [I-11]
42 |  | 7 | CN(c1ncc2c(n1)c(-c1cncnc1)cn2-c1c(F)ccc(NS(=O)(=O)CC2CC2)c1F)C1CCN(CC2CC2)CC1 [I-28]
43 |  | 5 | CCCS(=O)(=O)Nc1ccc(F)c(-n2cc(-c3cncnc3)c3nc(N(C)C4CCN(C5COC5)CC4)ncc32)c1F [I-38]
44 |  | 5 | CCCS(=O)(=O)Nc1ccc(F)c(-n2cc(-c3cncnc3)c3nc(N(C)C4CCN(CC5CC5)CC4)ncc32)c1F [I-43]
45 |  | 5 | CCCS(=O)(=O)Nc1ccc(F)c(-n2cc(-c3cncnc3)c3nc(N(C)C4CCN(CC(C)(C)O)CC4)ccc32)c1F [I-45]
